Reference: US20250136614A1, “2,7-SUBSTITUTED PYRROLO[2,1-F][1,2,4]TRIAZINE COMPOUND HAVING PROTEIN KINASE INHIBITORY ACTIVITY” (Magicbullettherapeutics Co., Ltd., priority 2021, published 2025)
Positions count from the first letter of the chain named.

Key:
[1] = target: T1, Ba/F3 FLT3 (ITD/D835Y) (Homo sapiens, UniProt P36888, D835Y, cells depend on it, form not given); experiment: Ba/F3 cell growth inhibition (CellTiter-Glo, 72 hours); format: cell-based; settings: read-out: Ba/F3 GI50s (μM) FLT3 (ITD/D835Y)
T1 sequence (P36888 1-993 D835Y): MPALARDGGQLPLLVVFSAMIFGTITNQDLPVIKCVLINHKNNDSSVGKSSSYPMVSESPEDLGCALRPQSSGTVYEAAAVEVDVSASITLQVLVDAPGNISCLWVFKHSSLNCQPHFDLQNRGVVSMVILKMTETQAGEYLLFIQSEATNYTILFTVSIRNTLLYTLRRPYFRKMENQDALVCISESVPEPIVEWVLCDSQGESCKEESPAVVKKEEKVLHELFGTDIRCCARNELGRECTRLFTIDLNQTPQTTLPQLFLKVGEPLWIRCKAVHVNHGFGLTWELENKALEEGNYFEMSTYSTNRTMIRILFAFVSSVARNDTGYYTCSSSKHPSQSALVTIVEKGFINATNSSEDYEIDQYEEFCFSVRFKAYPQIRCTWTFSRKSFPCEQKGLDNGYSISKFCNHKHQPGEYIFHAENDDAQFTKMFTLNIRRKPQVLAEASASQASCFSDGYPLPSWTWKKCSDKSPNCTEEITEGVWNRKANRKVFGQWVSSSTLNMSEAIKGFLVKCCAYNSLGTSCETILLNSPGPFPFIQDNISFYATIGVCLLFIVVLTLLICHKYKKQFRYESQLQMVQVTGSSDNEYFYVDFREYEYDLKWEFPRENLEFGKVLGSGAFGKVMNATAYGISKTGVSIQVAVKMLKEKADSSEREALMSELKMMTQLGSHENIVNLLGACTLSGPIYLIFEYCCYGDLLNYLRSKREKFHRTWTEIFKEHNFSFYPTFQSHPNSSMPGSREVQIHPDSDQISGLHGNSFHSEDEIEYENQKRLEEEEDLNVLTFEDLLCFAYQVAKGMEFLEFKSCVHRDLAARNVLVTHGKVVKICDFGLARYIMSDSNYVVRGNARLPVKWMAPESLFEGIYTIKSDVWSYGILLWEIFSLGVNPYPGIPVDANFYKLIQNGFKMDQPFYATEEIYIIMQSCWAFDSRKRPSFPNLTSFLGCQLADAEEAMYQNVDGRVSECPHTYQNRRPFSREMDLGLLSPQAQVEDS
Description: (§1) Seeding 3000 cells per well in a 96-well plate. After cell stabilization, treat the cells with compounds diluted in […] at a ⅓ serial dilution and culture for 72 hours. Following treatment with CellTiter-Glo, luminescence is produced only in the presence of ATP, as luciferase degrades luciferin. Luminescence values were measured using Envision (PerkinElmer). Based on the measured luminescence values, the concentration of compounds causing cell death was calculated to determine the GI50 value.
(§2) The activity values were categorized into three levels. • A: IC50<1 μM • B: 1 μM≤IC50<10 μM, • C: IC50≥10 μM

[2] = target: T2, Ba/F3 FLT3 (ITD/D835YF691L) (Homo sapiens, UniProt P36888, F691L/D835Y, cells depend on it, form not given); experiment: as above; format: cell-based; settings: read-out: Ba/F3 GI50s (μM) FLT3 (ITD/D835YF691L)
T2 sequence (P36888 1-993 F691L/D835Y): T1 sequence (P36888 1-993 D835Y) with F691L
Description: as §1, §2

Compound	GI50 [1]	GI50 [2]
O=C1CCCCCCOc2ccc(cc2)-c2ccc3cnc(nn23)Nc2ccc(cc2)OCCCN1 [Example 29, (Z)-5,17-dioxa-3,9-diaza-2(7,2)-pyrrolo[2,1-f][1,2,4]triazina-1,4(1,4)-dibenzenacycloheptadecaphan-10-one]	1 to 10 µM	1 to 10 µM
O=C1COCCOc2ccc(cc2)-c2ccc3cnc(nn23)Nc2cnn(c2)CCCN1 [Example 35, (2^1Z,4^4E)-4^1H-11,14-dioxa-3,8-diaza-2(7,2)-pyrrolo[2,1-f1][1,2,4]triazina-4(4,1)-pyrazola-1(1,4)-benzenacyclotetradecaphan-9-one]	< 1 µM	< 1 µM
CS(=O)(=O)Nc1cccc(-c2ccc3cnc(Nc4ccc(N5CCN(CCCCCCCCCCCOc6cccc7c6C(=O)N(C6CCC(=O)NC6=O)C7=O)CC5)cc4)nn23)c1 (stereo not drawn) [Example 42]	1 to 10 µM	1 to 10 µM
CS(=O)(=O)N1CCCn2cc(cn2)Nc2ncc3ccc(n3n2)-c2ccc(cc2)OCC1 [Example 9, (2^1Z,4^4E)-8-(methylsulfonyl)-4^1H-11-oxa-3,8-diaza-2(7,2)-pyrrolo[2,1-f][1,2,4]triazina-4(4,1)-pyrazola-1(1,4)-benzenecycloundecaphane]	< 1 µM	< 1 µM
O=C1CCCCOc2ccc(cc2)-c2ccc3cnc(nn23)Nc2ccc(cc2)OCCCN1 [Example 38, (Z)-5,15-dioxa-3,9-diaza-2(7,2)-pyrrolo[2,1-f][1,2,4]triazina-1,4(1,4)-dibenzenacyclopentadecaphan-10-one]	< 1 µM	1 to 10 µM
O=C1CCCCOc2ccc(cc2)-c2ccc3cnc(nn23)Nc2cnn(c2)CCCN1 [Example 36, (2^1Z,4^4E)-4^1H-14-oxa-3,8-diaza-2(7,2)-pyrrolo[2,1-f][1,2,4]triazina-4(4,1)-pyrazola-1(1,4)-benzenacyclotetradecaphan-9-one]	< 1 µM	< 1 µM
Cc1ncsc1-c1ccc(CNC(=O)[C@@H]2C[C@@H](O)CN2C(=O)[C@@H](NC(=O)CCOCCOCCN2CCN(c3ccc(Nc4ncc5ccc(-c6cccc(NS(C)(=O)=O)c6)n5n4)cc3)CC2)C(C)(C)C)cc1 [Example 84, (2S,4R)-1-((S)-3,3-dimethyl-2-(3-(2-(2-(4-(4-((7-(3-(methanesulfonamido)phenyl)pyrrolo[2,1-f][1,2,4]triazin-2-yl)amino)phenyl)piperazin-1-yl)ethoxy)ethoxy)propanamido)butanoyl)-4-hydroxy-N-(4-(4-methylthiazol-5-yl)benzyl)pyrrolidin-2-carboxamide]	< 1 µM	≥ 10 µM
O=C1CCCCCCOc2ccc(cc2)-c2ccc3cnc(nn23)Nc2ccc(cc2)N2CCN1CC2 [Example 24, (Z)-13-oxa-3-aza-2(7,2)-pyrrolo[2,1-f][1,2,4]triazina-5(1,4)-piperazina-1,4(1,4)-dibenzenacyclotridecaphan-6-one]	1 to 10 µM	≥ 10 µM
COc1cccc(NC(=O)N2CCCn3cc(cn3)Nc3ncc4ccc(n4n3)-c3ccc(cc3)OCC2)c1 [Example 7, (2^1Z,4^4E)-N-(3-methoxyphenyl)-4^1H-11-oxa-3,8-diaza-2(7,2)-pyrrolo[2,1-f][1,2,4]triazina-4(4,1)-pyrazola-1(1,4)-benzenecycloundecaphane-8-carboxamide]	< 1 µM	1 to 10 µM

Other lines, results leading:

GI50 [1]	GI50 [2]	Compound
< 1 µM	1 to 10 µM	O=C1CCCCCCOc2ccc(cc2)-c2ccc3cnc(nn23)Nc2ccc(cc2)N2CCN(CCCN1)CC2 [Example 23, (Z)-17-oxa-3,9-diaza-2(7,2)-pyrrolo[2,1-f][1,2,4]triazina-5(1,4)-piperazina-1,4(1,4)-dibenzenacycloheptadecaphan-10-one]
1 to 10 µM	1 to 10 µM	COc1cc2ccc1Nc1ncc3ccc(n3n1)-c1ccc(cc1)OCCOCC(=O)NCCCO2 [Example 34, (Z)-42-methoxy-5,12,15-trioxa-3,9-diaza-2(7,2)-pyrrolo[2,1-f][1,2,4]triazina-1,4(1,4)-dibenzenacyclopentadecaphan-10-one]
1 to 10 µM	< 1 µM	CS(=O)(=O)Nc1cccc(-c2ccc3cnc(Nc4ccc(N5CCN(CCCCCCCOc6cccc7c6C(=O)N(C6CCC(=O)NC6=O)C7=O)CC5)cc4)nn23)c1 (stereo not drawn) [Example 41]
< 1 µM	< 1 µM	O=C1CCCCOc2ccc(cc2)-c2ccc3cnc(nn23)Nc2cnn(c2)C2CCN(CCCN1)CC2 [Example 26, (2^1Z,4^4E)-4^1H-15-oxa-3,9-diaza-2(7,2)-pyrrolo[2,1-f1][1,2,4]triazina-5(4,1)-piperidina-4(4,1)-pyrazola-1(1,4)-benzenacyclopentadecaphan-10-one]
≥ 10 µM	≥ 10 µM	CS(=O)(=O)Nc1cccc(-c2ccc3cnc(Nc4ccc(N5CCN(CCCCCOc6cccc7c6C(=O)N(C6CCC(=O)NC6=O)C7=O)CC5)cc4)nn23)c1 (stereo not drawn) [Example 39]
< 1 µM	1 to 10 µM	O=C1CCCCOc2ccc(cc2)-c2ccc3cnc(nn23)Nc2cnn(c2)C2CCN1CC2 [Example 25, (2^1Z,4^4E)-4^1H-11-oxa-3-aza-2(7,2)-pyrrolo[2,1-f][1,2,4]triazina-5(4,1)-piperidina-4(4,1)-pyrazola-1(1,4)-benzenacycloundecaphan-6-one]
< 1 µM	1 to 10 µM	O=C1COCCOc2ccc(cc2)-c2ccc3cnc(nn23)Nc2ccc(cc2)OCCCN1 [Example 28, (Z)-5,12,15-trioxa-3,9-diaza-2(7,2)-pyrrolo[2,1-f][1,2,4]triazina-1,4(1,4)-dibenzenacyclopentadecaphan-10-one]
< 1 µM	1 to 10 µM	O=C1CCCCCCOc2ccc(cc2)-c2ccc3cnc(nn23)Nc2cnn(c2)CCCN1 [Example 37, (2^1Z,4^4E)-4^1H-16-oxa-3,8-diaza-2(7,2)-pyrrolo[2,1-f1][1,2,4]triazina-4(4,1)-pyrazola-1(1,4)-benzenacyclohexadecaphan-9-one]
1 to 10 µM	≥ 10 µM	O=C1CCCCCCOc2ccc(cc2F)-c2ccc3cnc(nn23)Nc2ccc(cc2)OCCCN1 [Example 20, (Z)-13-fluoro-5,17-dioxa-3,9-diaza-2(7,2)-pyrrolo[2,1-f][1,2,4]triazina-1,4(1,4)-dibenzenacycloheptadecaphan-10-one]
